Experimental data as given in patent US11524012B1, “Quinolone analogs and their salts, compositions, and method for their use” (Senhwa Biosciences, Inc., priority 2018, dated 2022).

Legend:
[1] = system: DLD-1 BRCA2−/− (HD 105-007); assay: Anti-proliferation assay 144 h (ATPlite); type: cell-based; conditions: for Fold Sensitivity of BRCA2^-/- line: BRCA2^-/- line relative to DLD-1 Parental line; for Fold Sensitivity of BRCA2^-/- line / IC50: 144 h proliferation assay; for IC50: Homo sapiens, DLD-1, ATPlite, read-out: Relative IC50, DLD-1 BRCA2^-/-
Experimental: (§1) The sensitivity of DLD-1 Parental and BRCA2−/− isogenic cell lines Compound I and Compounds 1 and 7-10 were evaluated in 144 h proliferations assays. Cells were seeded into 384-well plates in McCoy's 5A medium supplemented with 10% FBS at the seeding densities indicated below and allowed to adhere overnight prior to addition of compound or vehicle control. Compounds were weighed out and stock solutions in DMSO were made immediately prior to treatment of cells. Serial dilutions of compounds were prepared in DMSO and diluted in media before being added to cells in quadruplicate to give the final concentrations indicated on graphs (10 μM top concentration, 9-point semi-log dilution series, 0.2% DMSO final concentration for all treatments). Cells were incubated with compounds for 144 h at 37° C., 5% C02 in a humidified atmosphere. At the assay endpoint, ATPlite (Perkin Elmer) reagent was added at a volume equal to the volume of cell culture medium already present in each well and the plates processed as per the manufacturer's instructions. Media only background values were subtract and ted and the data was analyzed using a 4-parameter logistic equation in GraphPad Prism. DLD-1 Parental (HD PAR-008) DLD-1 BRCA2−/− (HD 105-007) used.

[2] = system: DLD-1 Parental (HD PAR-008); assay: Anti-proliferation assay 144 h (ATPlite); type: cell-based; conditions: Homo sapiens, 144 h proliferation assay, * = value should be considered as approximate, read-out: Relative IC50, DLD-1 Parental
Experimental: as §1

[3] = Stability of stock solutions and of spiked human plasma (LC/MS/MS method validation); type: physicochemical; conditions: refrigeration (2° C. to 8° C.)
Experimental: A reference standard stock solution of Compound I was prepared by weighing the reference standard and dissolving it in a solution of 50:50:0.1 (v/v) mixture of ACN:deionized water:formic acid, followed by vortex-mixing and sonication. This stock solution was used for preparation of the calibration standards. Another stock solution of Compound I was prepared following the same procedure and was used for preparation of the QC samples. Both stock solutions were prepared previously and stored at refrigeration (2° C. to 8° C.) prior to use on the day of assay. […] Both solutions were used within the established stability timeframe.
The internal standard stock solution was previously prepared by weighing Compound A (2-(4-Methyl-piperazin-1-yl)-5-oxo-5H-7-thia-1,11b-diaza-benzo[c]fluorene-6-carboxylic acid (5-methyl-pyrazin-2-ylmethyl)-amide) and dissolving it in a solution of 50:50:0.1 (v/v) mixture of ACN:deionized water:formic acid. This stock solution was stored at refrigeration (2° C. to 8° C.) prior to use. […] This solution was used within the established stability timeframe. On the day of assay, this solution was further diluted with a solution of 50:50:0.1 (v/v) mixture of ACN:deionized water:formic acid into a solution for spiking.
This assay method was based on a nominal quantitation range of 5.00 ng/mL to 5000 ng/mL. Validation results met their acceptance criteria for the assessments of calibration range, assay accuracy and precision, hemolysis matrix effects, lipidemic matrix effects, selectivity and specificity, dilution integrity, and assay ruggedness with respect to changing analysts and instrument, and over the run time anticipated for a prospective test sample run. Chromatographic carryover was not observed. A 6-minute assay run time was validated. […] (−63° C. to −77° C.) and following 4 cycles of freeze/thaw.

Row | SMILES | Fold Sensitivity of BRCA2^-/- line [1] | IC50 [1] | IC50 [2] | stock solution stable (50:50:0.1 ACN:deionized water:formic acid) [3] | sensitivity of the BRCA2 null line relative to the parental line (in words) ([1]; 144 h)
1 | Cc1cnc(CNC(=O)c2c(=O)c3ccc(N4CCC[N+](C)([O-])CC4)nc3n3c2sc2ccccc23)cn1 (centres unmarked) [Compound 9, 2-(4-methyl-4-oxidodiazepan-4-ium-1-yl)-N-((5-methylpyrazin-2-yl)methyl)-5-oxo-5H-benzo[4,5]thiazolo[3,2-a][1,8]naphthyridine-6-carboxamide] | 5.5 | 1.59 µM | ~8.78 µM | – | –
2 | Cc1cnc(CNC(=O)c2c(=O)c3ccc(N4CCN(C)CC4)nc3n3c2sc2ccccc23)cn1 [Compound A, 2-(4-Methyl-piperazin-1-yl)-5-oxo-5H-7-thia-1,11b-diaza-benzo[c]fluorene-6-carboxylic acid (5-methyl-pyrazin-2-ylmethyl)-amide, reference compound] | – | – | – | 384 days | –
3 | CN1CCCN(c2ccc3c(=O)c(C(N)=O)c4sc5ccccc5n4c3n2)CC1 [Compound 1, 2-(4-methyl-1,4-diazepan-1-yl)-5-oxo-5H-benzo[4,5]thiazolo[3,2-a][1,8]naphthyridine-6-carboxamide] | 400 | 0.0047 µM | 1.88 µM | – | extremely sensitive
4 | Cc1cnc(C(=O)NC(=O)c2c(=O)c3ccc(N4CCCN(C)CC4)nc3n3c2sc2ccccc23)cn1 [Compound 10, 2-(4-methyl-1,4-diazepan-1-yl)-N-((5-methylpyrazin-2-yl)carbonyl)-5-oxo-5H-benzo[4,5]thiazolo[3,2-a][1,8]naphthyridine-6-carboxamide] | 2.5 | 0.62 µM | 1.58 µM | – | –
5 | Cc1cnc(CNC(=O)c2c(=O)c3ccc(N4CCCNCC4)nc3n3c2sc2ccccc23)cn1 [Compound 7, 2-(1,4-diazepan-1-yl)-N-((5-methylpyrazin-2-yl)methyl)-5-oxo-5H-benzo[4,5]thiazolo[3,2-a][1,8]naphthyridine-6-carboxamide] | 21 | 0.56 µM | ~12 µM | – | –
6 | CN1CCCN(c2ccc3c(=O)c(C(=O)NCCCN4CCCCCC4=O)c4sc5ccccc5n4c3n2)CC1 [Compound 8, 2-(4-methyl-1,4-diazepan-1-yl)-N-(3-(2-oxoazepan-1-yl)propyl)-5-oxo-5H-benzo[4,5]thiazolo[3,2-a][1,8]naphthyridine-6-carboxamide] | 74 | 0.0072 µM | 0.53 µM | – | –
